Data on four compounds can be found in patent US20240376055A1, “INHIBITORS OF TRANSGLUTAMINASES” (Zedira GmbH, priority 2021, published 2024).

The nature of series [1]: Log D by shake flask method (octanol / PBS pH 7.4, HPLC). The format is physicochemical. The settings on record: octanol/phosphate-buffered saline; octanol / PBS pH 7.4, shake flask. Here is the method: In order to classify the inventive compounds according to their lipophilicity, Log D values (distribution coefficient) were determined by means of the well-established shake flask method, measuring the partition of a compound between an octanol and phosphate-buffered saline (PBS, pH 7.4) by HPLC.
Compounds with a moderate lipophilicity (Log D values from 0 to 3) are usually advantaged for oral absorption, being in balance between solubility and permeability. However, sophisticated formulation of a compound might improve oral bioavailability for highly lipophilic compounds.

In series [2] the target is T1, recombinant human transglutaminase 2 (Homo sapiens, UniProt P21980).
T1 construct: purchased Zedira T022
T1 sequence (P21980 1-687): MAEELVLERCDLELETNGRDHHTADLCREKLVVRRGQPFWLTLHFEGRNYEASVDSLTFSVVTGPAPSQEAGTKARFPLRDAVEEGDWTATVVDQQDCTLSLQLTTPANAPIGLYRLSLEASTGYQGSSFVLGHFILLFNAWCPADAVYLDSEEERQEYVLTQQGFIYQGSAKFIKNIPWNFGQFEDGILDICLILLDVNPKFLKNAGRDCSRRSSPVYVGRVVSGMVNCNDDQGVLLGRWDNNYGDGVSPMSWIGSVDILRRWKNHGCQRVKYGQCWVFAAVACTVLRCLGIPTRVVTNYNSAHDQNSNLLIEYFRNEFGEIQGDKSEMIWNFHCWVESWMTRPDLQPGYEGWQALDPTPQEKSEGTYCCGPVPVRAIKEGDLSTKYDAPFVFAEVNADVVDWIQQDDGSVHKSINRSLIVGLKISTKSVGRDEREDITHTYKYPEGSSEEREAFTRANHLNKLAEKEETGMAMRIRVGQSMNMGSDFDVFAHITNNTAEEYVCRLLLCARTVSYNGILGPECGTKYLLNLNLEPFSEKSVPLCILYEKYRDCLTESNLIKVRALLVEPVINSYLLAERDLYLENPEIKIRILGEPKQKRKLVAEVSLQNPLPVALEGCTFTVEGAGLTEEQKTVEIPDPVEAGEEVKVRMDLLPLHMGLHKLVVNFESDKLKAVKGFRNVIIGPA
Description: Transglutaminase assay (DCC-assay: dansylcadaverine incorporation into dimethylcasein). The format is biochemical. As to conditions: for IC50: 10 nM TG2, 37° C., slope 20-30 min. The method, then:
To illustrate the advantage of branched alkyl moieties over aromatic moieties, we refer to reference compounds Ref. 2 (ZED1227, U.S. Pat. No. 9,434,763 B2) and Ref. 3 (A8, ZED1047). Inhibition data were determined using the classical fluorescent transamidation assay (dansylcadaverine incorporation into methylated casein, DCC-assay) as described [Büchold, C.; Hils, M.; Gerlach, U.; Weber, J.; Pelzer, C.; Heil, A.; Aeschlimann, D.; Pasternack, R. Features of ZED1227: The First-In-Class Tissue Transglutaminase Inhibitor Undergoing Clinical Evaluation for the Treatment of Celiac Disease. Cells 2022, 11, 1667. https://doi.org/10.3390/cells11101667]. Casein is one of the best known high molecular weight (24 kDa) protein substrates for transglutaminases. Please note, the IC50 value of Ref. 3 (A8) published in U.S. Pat. No. 9,434,763 B2 cannot be compared to the present data, relying on a fluorogenic isopeptidase assay.
To this extent, inhibition data were determined using the classical fluorescent transamidation assay (dansylcadaverine incorporation into methylated casein, DCC-assay) as described in Büchold et al. [Buchold, C.; Hils, M.; Gerlach, U.; Weber, J.; Pelzer, C.; Heil, A.; Aeschlimann, D.; Pasternack, R. Features of ZED1227: The First-In-Class Tissue Transglutaminase Inhibitor Undergoing Clinical Evaluation for the Treatment of Celiac Disease. Cells 2022, 11, 1667. https://doi.org/10.3390/cells11101667]. Casein is one of the best known high molecular weight (24 kDa) protein substrates for transglutaminases. Inhibition data of the inventive compounds was compared with inhibition of compounds disclosed in U.S. Pat. No. 9,434,763 B2, particularly, compound A8, which is denoted herein as Reference 3. It is noteworthy that the IC50 values of compounds A8 published in U.S. Pat. No. 9,434,763 B2 and E16 from U.S. Pat. No. 11,072,634 B2 cannot be compared to the present data, relying on a fluorogenic isopeptidase assay.
For the determination of potency of inhibitors against tissue transglutaminase, the incorporation of dansylcadaverine into dimethylcasein (Zedira product T036, Lorand et al., Anal Biochem, 1971, 44:221-31) was measured using recombinant human transglutaminase 2 (Zedira Product T022).
The tissue transglutaminase is diluted in buffer (50 mM Tris-HCl, 7.5 mM CaCl2), 150 mM NaCl, pH=7.4). The final concentration of TG2 in the assay is 10 nM. A 10 mM inhibitor stock solution is prepared in DMSO, and from this a serial 1:2-fold dilution series is prepared also in DMSO. […]
Increase in fluorescence is measured using λex=330 nm and λem=500 nm at 37° C. for 30 min. […]
Analysis of enzymatic activity is performed by calculation of the slope of an increase in fluorescence intensity. […]

Series [3] can be described thus: Caco-2 permeability assay (CacoReady kit). The format is in vitro ADME. As to conditions: human; Caco-2 barrier. Here is the method: Permeability coefficients (Papp values) were obtained from Caco-2 barrier studies predicting oral/intestinal bioavailability of the tested compounds. The assays were performed by using CacoReady™ ready-to-use kits from ReadyCell according to the manufacturers protocol.

As to `CCNC(=O)C(=O)CC[C@H](NC(=O)c1ncc(OC)o1)C(=O)Nc1cccn(CCC(=O)NC2C3CC4CC(C3)CC2C4)c1=O` (stereo partly drawn) [Compound I-87, (S)-N1-(1-(3-(2-adamantylamino)-3-oxopropyl)-2-oxo-1,2-dihydropyridin-3-yl)-N6-ethyl-2-(5-methoxyoxazole-2-carboxamido)-5-oxohexanediamide], the logD in series [1] is 1 to 3. For the same compound, the IC50 in series [2] lay within 600 to 3500 nM. Moreover, in series [3], the Papp lay in the range of 1 to 10 ×10⁻⁶ cm/s.

On to `CCC(CC)CNC(=O)Cn1cccc(NC(=O)[C@H](CC/C=C/C(=O)OC)NC(=O)c2cncn2C)c1=O` [Ref. 2, reference compound], for which, in series [2] (DCC-assay, compared to Ref. 3 (A8)), the “fold more potent compared to Ref. 3” value is listed as 80 fold.

On to `CCC(CC)CNC(=O)Cn1cccc(NC(=O)[C@H](CCC(=O)C(=O)NC)NC(=O)c2cncn2C)c1=O` [Ref. 1, reference compound], for which, in series [2] (compared to Ref. 4, table 1), the “fold more potent compared to Ref. 4” value is “about 15 fold”.

In series [1], `CCNC(=O)C(=O)CC[C@H](NC(=O)c1ccn(C)n1)C(=O)Nc1cccn(CC(=O)N[C@]23C[C@H]4C5CC6CC4[C@H](C2)C(C6)[C@H]5C3)c1=O` (single isomer, unassigned) [Compound I-80] showed a log distribution coefficient (logD) of 1 to 3. The IC50 in series [2] is 150 to 600 nM. In series [3], this compound registered an apparent permeability coefficient (Papp) of less than 1 ×10⁻⁶ cm/s.
